From US9844526B2 (priority 2015, dated 2017)
“Also recorded” adds a separate entry of the source. Where two headings read alike, the source gives them in different places. Blank lines part the entries; values can stand above or below the compound they belong to.

Experiments:
vascular function = details: cited from earlier work
eNOS = details: 1 μM; human umbilical vein endothelial cells; cited from earlier work
platelets [1] = details: 10 mg daily for three months; cited from earlier work
platelets [2] = details: in vitro, 10-1,000 μM, dose dependent; cited from earlier work
cyclooxygenase = details: in vitro; cited from earlier work
[3] = test system: Healthy postmenopausal women; assay: Microvascular function by peripheral arterial tonometry (Endo-PAT2000), randomized double-blind crossover trial; assay type: in vivo, human; details: combined data
[4] = Plasma resveratrol concentrations after capsule intake (HPLC); assay type: in vivo, human; details: one hour study, median (interquartile range), baseline 0.00 (0.00, 0.00)
Description: The study included two separate investigations: a one hour study and a two hour study (FIG. 1). […] The two hour study was designed to fully assess and compare the responses to trans-res and ResArgin™.
Participants were randomized by block design to consumed trans-res or ResArgin™ in random order. Randomization was performed by the study coordinator following a predetermined plan formulated via a web-based random number generator. […] The study included two separate investigations: a one hour study and a two hour study (FIG. 6). During each study visit, which took place after an overnight fast, a baseline measurement of PAT and a blood sample were collected, followed by consumption of the assigned treatment. During the one hour study, PAT measurements and blood samples were collected thirty and sixty minutes after the capsules were consumed. During the two hour study, a PAT measurement and blood sample were taken two hours after the capsules were consumed.
Briefly, plasma was treated with acidified methanol [0.5% (v/v) of acetic acid in methanol; precooled to −20° C.] containing an appropriate recovery standard. The mixture was stored at −80 C for 12 hours to allow for cryo-assisted protein precipitation, and then centrifuged for 15 min at 16,500×g. […]

platelets [5] = assay: Platelet function by whole blood/optical lumi-aggregometer after capsule intake; assay type: in vivo, human
Description: Participants were randomized by block design to consumed trans-res or […] random order. Randomization was performed by the study coordinator following a predetermined plan formulated via a web-based random number generator. […] The study included two separate investigations: a one hour study and a two hour study (FIG. 6). During each study visit, which took place after an overnight fast, a baseline measurement of PAT and a blood sample were collected, followed by consumption of the assigned treatment. During the one hour study, PAT measurements and blood samples were collected thirty and sixty minutes after the capsules were consumed. During the two hour study, a PAT measurement and blood sample were taken two hours after the capsules were consumed. Platelet reactivity during clinical screening was assessed by a PFA-100 (Siemens, Deerfield, Ill.), which measures platelet function by simulating arterial hemostasis under blood flow shear stress. During the intervention, platelet function was assessed by a whole blood/optical lumi-aggregometer (Chrono-log Model 700, Havertown, Pa.). Briefly, platelet aggregation was measured via electrical impedence (or electrical resistance), whereas lumi-aggregometry was used to examine aggregation together with adenosine triphosphate (hereafter, “ATP”) release, which is determined with firefly luciferin-luciferase system. […] One of the following agonists was used to stimulate platelets: collagen ([…]), AA (10 μL) or ADP ([…]). ATP release was measured only when platelets were activated with ADP. The aggregation was measured over a period of six minutes, following the addition of an agonist.

platelets [6] = details: 4 mg/kg/day; cited from earlier work
[7] = 10 mg per day for three months, stable coronary artery disease patients
[8] = platelets stimulated with 1 μL collagen, one hour post consumption of 90 mg
[9] = platelets stimulated with 10 μL arachidonic acid, one hour after intake of 90 mg

- Plasma resveratrol concentration ([4]; 30 minutes after intake of 90 mg): 2.04 (0.82, 2.54)
- Plasma resveratrol concentration ([4]; 60 minutes after intake of 90 mg): 2.65 (1.69, 3.44)
SMILES: Oc1ccc(/C=C/c2cc(O)cc(O)c2)cc1 [trans-res, Trans-resveratrol]
- FMD response (vascular function; [7]): significant improvement
- FMD response (vascular function; 75 mg daily for six weeks): significant increase
- FMD response (vascular function; 75 mg, one hour post-consumption): significant increase
- FMD response (vascular function; single dose of 30, 90 and 270 mg, one hour after consumption): increase
- Expression of eNOS (eNOS): up-regulated
- Platelet aggregation (platelets [1]): significantly reduced
- Platelet aggregation (platelets [2]): significantly reduced
- Cyclooxygenase (COX) activity (cyclooxygenase): inhibit
- AI@75 (AI normalized to a heart rate of 75 beats per minute), change ([3]; 90 mg): No significant changes
- RHI ([3]; 1 hour after intake, ResArgin baseline 2.119±0.085): not observed
- FRHI, change from baseline ([3]; one and two hours after intake): No differences were observed; also recorded: no changes
- Slope, change from baseline (platelets [5]; lumi-aggregometry with 10 μL ADP, one hour post consumption of 90 mg): significant decrease
- Lag time, change from baseline (platelets [5]; [8]): significant increase
- Slope, change from baseline (platelets [5]; [8]): not
- Area under the curve (AUC) of aggregation, change from baseline (platelets [5]; [9]): no changes
- Maximum aggregation, change from baseline (platelets [5]; [9]): no changes
- Platelet function, change from baseline (platelets [5]; stimulation with 5 μL collagen, one hour post consumption of 90 mg): no significant changes

SMILES: Oc1ccc(C=Cc2cc(O)cc(O)c2)cc1 [Resveratrol, 3,5, 4′-trihydroxystilbene]
- ADP-induced platelet aggregation (platelets [6]): inhibited
- FMD response (vascular function; [7]): enhanced
- FMD response (vascular function; 75 mg daily for six weeks): enhanced
